Values after ≈ are worked out from the molar mass of the structure shown. Where two headings read alike, the source gives them in different places. Positions of bridges follow the written chain, without caps; N, C: chain ends. Non-standard residues stand in square brackets, D forms with d. Residues, ends and D or L forms follow the SMILES beside them. *: point of attachment. CH2CH2OBz(4-tBu) = CC(C)(C)c1ccc(C(=O)OCC*)cc1; Ethyl(2-decanoyloxy) = CCCCCCCCCC(=O)OCC*; Ethyl(2-butanoyloxy) = CCCC(=O)OCC*; Ethyl(2-propionyloxy) = CCC(=O)OCC*; Ethyl(2-OPiv) = CC(C)(C)C(=O)OCC*; Ethyl(2-OBz) = O=C(OCC*)c1ccccc1; X14 = CCCCCCCCCCCC(=O)OCC*; hCys = N[C@@H](CCS)C(=O)O; Dab = NCC[C@H](N)C(=O)O; X4 = CCCCCCCC(=O)OCC*; X1 = CCCCCC(=O)OCC*; Mpa = O=C(O)CCS
Test system: E. coli ATCC 25922
Type: cell-based, Escherichia coli
From the text: All 81 compounds prepared in Examples 2 and 3 underwent screening against a panel of Gram-negative bacterium to assess their ability to inhibit bacterial growth. […] The median value is presented.

| Structure (SMILES) | MIC E. coli ATCC 25922 (ATCC 25922) | MIC E. coli ATCC 25922 (median of triplicate) |
| --- | --- | --- |
| CCC(=O)OCCSC[C@H](N)C(=O)N[C@H](C(=O)N[C@@H](CCN)C(=O)N[C@H]1CCNC(=O)[C@H]([C@@H](C)O)NC(=O)[C@H](CCN)NC(=O)[C@H](CCN)NC(=O)[C@H](CC(C)C)NC(=O)[C@@H](Cc2ccccc2)NC(=O)[C@H](CCN)NC1=O)[C@@H](C)O [Compound 61] (H-C(Ethyl(2-propionyloxy))T[Dab][Dab][Dab][dF]L[Dab][Dab]T; lactam 4-C) | >128 mg/L | – |
| CCC(=O)OCCSC[C@@H](N)C(=O)N[C@H](C(=O)N[C@@H](CCN)C(=O)N[C@H]1CCNC(=O)[C@H]([C@@H](C)O)NC(=O)[C@H](CCN)NC(=O)[C@H](CCN)NC(=O)[C@H](CC(C)C)NC(=O)[C@@H](Cc2ccccc2)NC(=O)[C@H](CCN)NC1=O)[C@@H](C)O [Compound 62] (H-[dC](Ethyl(2-propionyloxy))T[Dab][Dab][Dab][dF]L[Dab][Dab]T; lactam 4-C) | 1 mg/L (≈ 0.857 µM) | – |
| CCC(=O)OCCSCCC(=O)N[C@H](C(=O)N[C@@H](CCN)C(=O)N[C@H]1CCNC(=O)[C@H]([C@@H](C)O)NC(=O)[C@H](CCN)NC(=O)[C@H](CCN)NC(=O)[C@H](CC(C)C)NC(=O)[C@@H](Cc2ccccc2)NC(=O)[C@H](CCN)NC1=O)[C@@H](C)O [Compound 63] ([Mpa](Ethyl(2-propionyloxy))T[Dab][Dab][Dab][dF]L[Dab][Dab]T; lactam 4-C) | 8 mg/L (≈ 6.95 µM) | – |
| CCC(=O)OCCSCC[C@H](N)C(=O)N[C@H](C(=O)N[C@@H](CCN)C(=O)N[C@H]1CCNC(=O)[C@H]([C@@H](C)O)NC(=O)[C@H](CCN)NC(=O)[C@H](CCN)NC(=O)[C@H](CC(C)C)NC(=O)[C@@H](Cc2ccccc2)NC(=O)[C@H](CCN)NC1=O)[C@@H](C)O [Compound 64] (H-[hCys](Ethyl(2-propionyloxy))T[Dab][Dab][Dab][dF]L[Dab][Dab]T; lactam 4-C) | >128 mg/L | – |
| CCC(=O)OCCSC[C@H](N)C(=O)N[C@H](C(=O)N[C@@H](CCN)C(=O)N[C@H]1CCNC(=O)[C@H]([C@@H](C)O)NC(=O)[C@H](CCN)NC(=O)[C@H](CCN)NC(=O)[C@H](CC(C)C)NC(=O)[C@@H](Cc2ccccc2)NC(=O)[C@H](CCN)NC1=O)[C@@H](C)O [Compound 65] (H-C(Ethyl(2-propionyloxy))T[Dab][Dab][Dab][dF]L[Dab][Dab]T; lactam 4-C) | 64 mg/L (≈ 54.9 µM) | – |
| CCCC(=O)OCCSC[C@H](N)C(=O)N[C@H](C(=O)N[C@@H](CCN)C(=O)N[C@H]1CCNC(=O)[C@H]([C@@H](C)O)NC(=O)[C@H](CCN)NC(=O)[C@H](CCN)NC(=O)[C@H](CC(C)C)NC(=O)[C@@H](Cc2ccccc2)NC(=O)[C@H](CCN)NC1=O)[C@@H](C)O [Compound 66] (H-C(Ethyl(2-butanoyloxy))T[Dab][Dab][Dab][dF]L[Dab][Dab]T; lactam 4-C) | 16 mg/L (≈ 13.6 µM) | – |
| CCCCCC(=O)OCCSC[C@H](N)C(=O)N[C@H](C(=O)N[C@@H](CCN)C(=O)N[C@H]1CCNC(=O)[C@H]([C@@H](C)O)NC(=O)[C@H](CCN)NC(=O)[C@H](CCN)NC(=O)[C@H](CC(C)C)NC(=O)[C@@H](Cc2ccccc2)NC(=O)[C@H](CCN)NC1=O)[C@@H](C)O [Compound 67] (H-C(X1)T[Dab][Dab][Dab][dF]L[Dab][Dab]T; lactam 4-C) | 4 mg/L (≈ 3.31 µM) | – |
| CCCCCCCC(=O)OCCSC[C@H](N)C(=O)N[C@H](C(=O)N[C@@H](CCN)C(=O)N[C@H]1CCNC(=O)[C@H]([C@@H](C)O)NC(=O)[C@H](CCN)NC(=O)[C@H](CCN)NC(=O)[C@H](CC(C)C)NC(=O)[C@@H](Cc2ccccc2)NC(=O)[C@H](CCN)NC1=O)[C@@H](C)O [Compound 68] (H-C(X4)T[Dab][Dab][Dab][dF]L[Dab][Dab]T; lactam 4-C) | 1 mg/L (≈ 0.809 µM) | – |
| CCCCCCCCCC(=O)OCCSC[C@H](N)C(=O)N[C@H](C(=O)N[C@@H](CCN)C(=O)N[C@H]1CCNC(=O)[C@H]([C@@H](C)O)NC(=O)[C@H](CCN)NC(=O)[C@H](CCN)NC(=O)[C@H](CC(C)C)NC(=O)[C@@H](Cc2ccccc2)NC(=O)[C@H](CCN)NC1=O)[C@@H](C)O [Compound 69] (H-C(Ethyl(2-decanoyloxy))T[Dab][Dab][Dab][dF]L[Dab][Dab]T; lactam 4-C) | 2 mg/L (≈ 1.58 µM) | – |
| CCCCCCCCCCCC(=O)OCCSC[C@H](N)C(=O)N[C@H](C(=O)N[C@@H](CCN)C(=O)N[C@H]1CCNC(=O)[C@H]([C@@H](C)O)NC(=O)[C@H](CCN)NC(=O)[C@H](CCN)NC(=O)[C@H](CC(C)C)NC(=O)[C@@H](Cc2ccccc2)NC(=O)[C@H](CCN)NC1=O)[C@@H](C)O [Compound 70] (H-C(X14)T[Dab][Dab][Dab][dF]L[Dab][Dab]T; lactam 4-C) | 8 mg/L (≈ 6.19 µM) | – |
| CC(C)C[C@@H]1NC(=O)[C@@H](Cc2ccccc2)NC(=O)[C@H](CCN)NC(=O)[C@@H](NC(=O)[C@H](CCN)NC(=O)[C@@H](NC(=O)[C@@H](N)CSCCOC(=O)C(C)(C)C)[C@@H](C)O)CCNC(=O)[C@H]([C@@H](C)O)NC(=O)[C@H](CCN)NC(=O)[C@H](CCN)NC1=O [Compound 71] (H-C(Ethyl(2-OPiv))T[Dab][Dab][Dab][dF]L[Dab][Dab]T; lactam 4-C) | 32 mg/L (≈ 26.8 µM) | – |
| CC(C)C[C@@H]1NC(=O)[C@@H](Cc2ccccc2)NC(=O)[C@H](CCN)NC(=O)[C@@H](NC(=O)[C@H](CCN)NC(=O)[C@@H](NC(=O)[C@@H](N)CSCCOC(=O)c2ccccc2)[C@@H](C)O)CCNC(=O)[C@H]([C@@H](C)O)NC(=O)[C@H](CCN)NC(=O)[C@H](CCN)NC1=O [Compound 72] (H-C(Ethyl(2-OBz))T[Dab][Dab][Dab][dF]L[Dab][Dab]T; lactam 4-C) | – | 8 mg/L (≈ 6.59 µM) |
| CC(C)C[C@@H]1NC(=O)[C@@H](Cc2ccccc2)NC(=O)[C@H](CCN)NC(=O)[C@@H](NC(=O)[C@H](CCN)NC(=O)[C@@H](NC(=O)[C@@H](N)CSCCOC(=O)c2ccc(C(C)(C)C)cc2)[C@@H](C)O)CCNC(=O)[C@H]([C@@H](C)O)NC(=O)[C@H](CCN)NC(=O)[C@H](CCN)NC1=O [Compound 73] (H-C(CH2CH2OBz(4-tBu))T[Dab][Dab][Dab][dF]L[Dab][Dab]T; lactam 4-C) | 1 mg/L (≈ 0.787 µM) | – |
| CCC(=O)OCCSC[C@@H](N)C(=O)N[C@H](C(=O)N[C@@H](CCN)C(=O)N[C@H]1CCNC(=O)[C@H]([C@@H](C)O)NC(=O)[C@H](CCN)NC(=O)[C@H](CCN)NC(=O)[C@H](CC(C)C)NC(=O)[C@@H](Cc2ccccc2)NC(=O)[C@H](CCN)NC1=O)[C@@H](C)O [Compound 74] (H-[dC](Ethyl(2-propionyloxy))T[Dab][Dab][Dab][dF]L[Dab][Dab]T; lactam 4-C) | 2 mg/L (≈ 1.71 µM) | – |
| CCCC(=O)OCCSC[C@@H](N)C(=O)N[C@H](C(=O)N[C@@H](CCN)C(=O)N[C@H]1CCNC(=O)[C@H]([C@@H](C)O)NC(=O)[C@H](CCN)NC(=O)[C@H](CCN)NC(=O)[C@H](CC(C)C)NC(=O)[C@@H](Cc2ccccc2)NC(=O)[C@H](CCN)NC1=O)[C@@H](C)O [Compound 75] (H-[dC](Ethyl(2-butanoyloxy))T[Dab][Dab][Dab][dF]L[Dab][Dab]T; lactam 4-C) | 1 mg/L (≈ 0.847 µM) | – |
| CCCCCC(=O)OCCSC[C@@H](N)C(=O)N[C@H](C(=O)N[C@@H](CCN)C(=O)N[C@H]1CCNC(=O)[C@H]([C@@H](C)O)NC(=O)[C@H](CCN)NC(=O)[C@H](CCN)NC(=O)[C@H](CC(C)C)NC(=O)[C@@H](Cc2ccccc2)NC(=O)[C@H](CCN)NC1=O)[C@@H](C)O [Compound 76] (H-[dC](X1)T[Dab][Dab][Dab][dF]L[Dab][Dab]T; lactam 4-C) | 0.125 mg/L (≈ 0.103 µM) | – |
